# What was measured:
# [1] = tested on: vincristine induced neuropathy; assay: Walking test (motor coordination) in vincristine-treated rats; format: in vivo, rat; conditions: IL-6 0.3, 1, 3, 10 μg/kg SC daily; 2 and 3 weeks
# Procedure: The motor coordination was assessed using walking test, which consists at measuring the time taken by a rat placed at one extremity of a 100 cm-long horizontal wooden rod of 5.5 cm diameter, 40 cm above the table, to cover a distance of 1 m on this rod. Three tests (maximum duration: 60 s each) were performed, and the mean value was calculated and retained as characteristic value. If the animal fell down, it was scored with a maximum of 60 s.
# [2] = tested on: vincristine induced neuropathy; assay: Morphometric analysis of sciatic nerve in vincristine-treated rats; format: in vivo, rat
# Procedure: Histomorphometric analyses were carried out as described in Example 18 at the completion of the experiments, to explore morphologic changes occurring in fiber and axon diameter and myelin thickness in rats treated with vincristine and in rats co-administrated with IL-6.
# With vincristine, morphometric analysis was performed 2 week after the end of vincristine administration on 3 animals per group. The animals were anesthetized by IP injection of 100 mg/kg Imalgène 500®. A 5 mm segment of sciatic nerve was excised, fixed overnight with 4% glutaraldehyde (Sigma, L'Isle d'Abeau-Chesnes, France) in phosphate buffered saline (PBS) (pH=7.4) and maintained in 30% sucrose and stored at 4° C. until further processing. At the time of use, the nerve sample was post-fixed in 1% osmium tetroxide (Sigma, L'Isle d'Abeau-Chesnes, France) in PBS for 2 h, dehydrated in serial alcohol solution, and embedded in Epon. Embedded tissues were then placed at 70° C. during 3 days to allow polymerization of the tissue wax. Cross sections of 1.5 μm thick were performed and they were stained with a 1% toluidine blue solution (Sigma, L'Isle d'Abeau-Chesnes, France) for 2 min, dehydrated and mounted on Eukitt. Twelve sections per sample were examined using an optical microscope (Nikon, Tokyo, Japan) and analyzed using, a semi-automated digital image analysis software (Biocom, France). The fiber diameter (a), axon diameter (b), and myelin thickness (c) were measured as illustrated below.
# [3] = patients with myelodysplastic syndromes and trombocytopenia; cited from earlier work
# [4] = monkeys; cited from earlier work
substance,measurement,setting,value
IL-6: Recombinant human IL-6 produced in genetically engineered Chinese Hamster Ovary (CHO) cells,"walking test, time to traverse the rod versus vincristine alone",[1],traversed the rod faster
same,decrease in axon diameter by vincristine,[2]; IL-6 0.3-10 μg/kg SC daily,significantly reduced/prevented the decrease in axon diameter
same,percentage of degenerated fibers in vincristine treated rats,[2]; IL-6 0.3-10 μg/kg SC daily,decreased the percentage of degenerated fibers
same,vincristine-induced fiber shrinkage,[2]; IL-6 1-10 μg/kg SC daily,prevented vincristine-induced fiber shrinkage
same,vincristine-induced myelin loss,[2]; IL-6 1-10 μg/kg SC daily,reduced/prevented vincristine-induced myelin loss
same,maximum dose tolerated,[3],3.75 µg/kg/day
same,active dose as thrombopoietic factor,[4],0.01 mg/kg

# — patent publication US7951359B2, “Compositions and methods for therapy or prevention of chemotherapy-induced neuropathy” (Merck Serono SA, priority 2004, dated 2011)
